The source of these data is PubChem BioAssay (NCI).

Where “and” joins values, the source holds several entries; their conditions need not be identical. Equal values may be shown once.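 Dose response: 5 concentrations. Exposure: 48 h. Format: 96-well plates. Endpoint: linear interpolation; highest concentration if not reached. GI50 marks 50% less growth. At the TGI there is no net growth.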 Bounds are passed on as bounds.

What is called TGI is the concentration at which net growth stops. Read a low TGI as more potent growth arrest. By GI50 is commonly meant the concentration at which growth is held to half of that of the control.

What all share (assay): DTP human tumour cell line panel, 48 h
Experiment [1] concerns DLD-1 colon.
The test system of experiment [2] is DMS 114 small cell lung.
The subject of experiment [3] is DMS 273 small cell lung.
In experiment [4] the test system is HOP-92 NSCLC.
In experiment [5] the test system is KM20L2 colon.
Experiment [6] concerns M19-MEL melanoma.
The subject of experiment [7] is RXF 393 renal.
Experiment [8] has as its system SF-268 CNS.
In experiment [9] the test system is SF-295 CNS.
The test system of experiment [10] is SK-OV-3 ovarian.
Experiment [11] relates to SNB-78 CNS.
For experiment [12], the system named is SR leukemia.
Experiment [13] relates to XF 498 CNS.

Turning to `C1CCN(c2nc(=[N+]3CCCCC3)ss2)CC1`, the TGI in experiment [1], in experiment [2], in [3], in experiment [4], in experiment [5] and in experiment [6] was greater than 100 µM in each case. For the same compound, the TGI in experiment [7], in [8], in experiment [9], in experiment [10], in [11] and in experiment [12] was greater than 100 µM in each case. In addition, in [13], the TGI is greater than 100 µM.
In the case of `COc1cc(OC)c(C2CC=Cc3c(OC)cc(OC)c(OC)c32)cc1OC` (stereo not drawn), the concentration for total growth inhibition (TGI) in [1], in experiment [2], in [3], in experiment [4], in experiment [5] and in [6] was greater than 100 µM throughout. The TGI in [7], in experiment [8], in experiment [9], in experiment [10], in experiment [11] and in experiment [12] was greater than 100 µM throughout. This compound displayed a TGI in experiment [13] greater than 100 µM.
For `CCCCCCCCCCCC1CCCC(C)N1` (stereo not drawn), the TGI in experiment [1] is 83.4 µM; in [2], 139 µM; in [3] it was 136 µM; in experiment [4], 31.8 µM and 90.2 µM; in experiment [5], 85.9 µM; in [6], 130 µM. Moreover, the TGI in experiment [7] is 35.6 µM and 108 µM; in experiment [8], 27.2 µM and 147 µM; in experiment [9], 28.3 µM and 154 µM; in experiment [10], 28.5 µM and 158 µM; in experiment [11], 174 µM; in [12], greater than 100 µM. The compound also came in with a total growth inhibition concentration (TGI) in experiment [13] of 95.3 µM. Further, the GI50 in experiment [4] is 6.67 µM; in experiment [7], 15.2 µM; in experiment [8], 11 µM; in experiment [9] it was 13.5 µM; in [10], 14.5 µM; in experiment [12], 2630 nM.
Consider `COc1cc2c3c(c1OC)-c1c(ccc4c1OCO4)CC3(C#N)N(C(=O)c1ccccc1)CC2` (stereo not drawn), for which the TGI in experiment [1] was greater than 100 µM; in experiment [2], greater than 100 µM; in experiment [3], greater than 100 µM; in [4] it was 77.9 µM; in experiment [5], greater than 100 µM; in experiment [6], greater than 100 µM. The concentration for total growth inhibition (TGI) in experiment [7], in experiment [8], in experiment [9], in experiment [10], in experiment [11] and in experiment [12] was greater than 100 µM in each case. In experiment [13], this compound showed a TGI of 60.2 µM.
`COC(=O)CCC(=O)CC(=O)C(=O)Nc1c(Cl)cc([N+](=O)[O-])cc1Cl`: the total growth inhibition concentration (TGI) is greater than 100 µM in [1]; 77.9 µM in experiment [2]; greater than 100 µM in experiment [3]; greater than 100 µM in experiment [4]; greater than 100 µM in [5]; greater than 100 µM in experiment [6]. In addition, the TGI in experiment [7] is greater than 100 µM; in experiment [8], greater than 100 µM; in experiment [9], greater than 100 µM; in experiment [10], greater than 100 µM; in experiment [11] it was greater than 100 µM; in experiment [12], 61.7 µM. In addition, the TGI in experiment [13] was greater than 100 µM.
In the case of `O=C1C2C3C=CC(C2C(=O)N1COP(=O)(O)O)C1C2C(=O)N(COP(=O)(O)O)C(=O)C2C31` (stereo not drawn), the concentration for total growth inhibition (TGI) in experiment [1] was greater than 75.9 µM; in experiment [2], greater than 58.8 µM; in experiment [3] it was greater than 56.3 µM; in experiment [4], greater than 100 µM; in [5], greater than 100 µM; in experiment [6], greater than 100 µM. Besides, the concentration for total growth inhibition (TGI) was greater than 100 µM in [7]; greater than 100 µM in [8]; greater than 100 µM in experiment [9]; greater than 100 µM in experiment [10]; greater than 100 µM in [11]; 38.6 µM in experiment [12]. The same compound gave a total growth inhibition concentration (TGI) in experiment [13] greater than 100 µM.
As for `CCc1cccc(C(C)C)c1NC(=O)C(=O)C(CC(=O)Nc1ccc(Cl)c(Cl)c1)C(=O)OC` (stereo not drawn), the concentration for total growth inhibition (TGI) in [1], in experiment [2], in experiment [3], in experiment [4], in experiment [5] and in [6] was greater than 100 µM in each case. The TGI in [7], in experiment [8], in [9], in experiment [10], in experiment [11] and in experiment [12] was greater than 100 µM each time. This compound showed a concentration for total growth inhibition (TGI) in experiment [13] greater than 100 µM.
`S=c1cc(S)sc2c1c(=S)sc1nc3ccccn3c(=S)c12`: the TGI in [1] was greater than 100 µM; in experiment [2], 40.1 µM; in experiment [3], greater than 100 µM; in experiment [4], greater than 100 µM; in experiment [5], greater than 100 µM; in experiment [6], greater than 100 µM. The TGI in experiment [7], in [9], in [11], in [12] and in experiment [13] was greater than 100 µM throughout.
